Assay results: ChEMBL document CHEMBL1144070, “Microbial transformation of sampangine” (1999)
≈ marks a conversion by molar mass, not a printed value. Calls of active or inactive are those of the source. The calls are words filed in the database; no cut-off is given here.

Key:
Candida albicans = experiment: Antifungal activity against Candida albicans NIH B311 after 24 hrs by agar well diffusion method; format: functional
Cryptococcus neoformans [1] = experiment: Antifungal activity against Cryptococcus neoformans ATCC 52657 after 48 hrs by agar well diffusion method; format: functional; conditions: ATCC 52657, 48 h
Cryptococcus neoformans [2] = experiment: Antifungal activity against Cryptococcus neoformans infected in Swiss ICR mouse assessed as lethality at 50 mg/kg, ip administered 24 hrs post infection for 12 days; format: functional, organism-based; parameters: dose 50 mg/kg

| MIC (Candida albicans) [µg/mL] | MIC (Cryptococcus neoformans [1]) [µg/mL] | Compound | Activity (Candida albicans) | Activity (Cryptococcus neoformans [2]) |
| --- | --- | --- | --- | --- |
| 3.12 (≈ 13.4 µM) | 0.2 (≈ 0.861 µM) | O=C1c2ccccc2-c2nccc3ccnc1c23 [SAMPANGINE] |  |  |
|  | 0.78 (≈ 1.97 µM) | OC[C@H]1O[C@@H](Oc2c3c4c(ccnc4c4ccccc24)C=CN3)[C@H](O)[C@@H](O)[C@@H]1O | inactive | inactive |
|  | 0.2 (≈ 0.487 µM) | CO[C@H]1[C@H](O)[C@@H](O)[C@H](Oc2c3c4c(ccnc4c4ccccc24)C=CN3)O[C@@H]1CO | inactive |  |
